Measurements from paper PMC9962735, “Synthesis and Cytotoxic Activity of the Derivatives of N-(Purin-6-yl)aminopolymethylene Carboxylic Acids and Related Compounds” (Molecules, 2023).

Experiments:
[1] = system: SK-BR-3 human breast adenocarcinoma; assay: MTT cytotoxicity assay, SK-BR-3; format: cell-based; conditions: Homo sapiens; for CC50: SK-BR-3, 72 h, SK-BR-3, 72 h incubation, MTT
Description: (§1) The cytotoxicity of the test compounds was studied using the MTT assay against a number of cell lines: CT-26 murine colon carcinoma, 4T1 murine mammary carcinoma, MDA-MB-231 human breast adenocarcinoma, COLO201 human colorectal adenocarcinoma, HepG2 human hepatocellular carcinoma, A549 human non-small-cell lung carcinoma, SK-BR-3 human breast adenocarcinoma, SNU-1 human gastric carcinoma, Jurkat human acute T-lymphoblastic leukemia, and WI-38 human lung fibroblasts (normal cells). Doxorubicin (Dox) was used as a reference drug. Cells were incubated with test compounds for 72 h.
(§2) Cells were seeded in flat-bottomed 96-well plates at 10,000 cells per well (for A549, SNU-1, WI-38, CT-26, MDA-MB-231, 4T1, and HepG2 cells) or 20,000 cells per well (for SK-BR-3, Jurkat, and COLO201 cells) and cultivated in complete culture mediums (for composition of each medium, see the Supplementary Materials, Table S1) in a CO2 incubator at 37 °C. At the first stage of this study, the test compounds dissolved in DMSO were added to the wells with cells at final concentrations from 1 × 10^–4 to 1 × 10^–10 mol/L (A549, SK-BR-3, SNU-1, Jurkat, and WI-38) or 1 × 10^–3 to 1 × 10^–8 mol/L (CT-26, MDA-MB-231, 4T1, COLO201, and HepG2); DMSO concentration in the wells was finally 1%. A complete cultural medium and DMSO were added to the control wells at the same concentration as in the experimental wells; 0.1% Triton X-100 solution (10 µL) was added to the corresponding wells as a non-specific positive control. After adding the test compounds, the cells were incubated for 72 h in an atmosphere containing 5% CO2. After that, the nutrient medium was removed from each well (in the case of SK-BR-3, Jurkat, and COLO201, plates were pre-centrifuged at 1500 rpm for 6 min). A solution of the commercial anticancer agent Doxorubicin (Dox, Sigma-Aldrich, St. Louis, MO, USA) in DMSO was used as a reference drug. Then, 150 µL of a complete medium with the MTT reagent (PanEco, Moscow, Russia) at a concentration of 0.5 mg/mL was added and incubated for 2 h. Formazan crystals were dissolved in DMSO (200 µL) and the absorbance in the wells was measured at 540 nm and a reference wavelength of 650 nm (Sunrise, Tecan, Groding, Austria). Experiments were performed in three parallel runs. Cell viability after incubation in the presence of test compounds was calculated in relation to cell viability in the control wells according to the Formula (1):Cell viability (%) = (Aexp/Ac) × 100,(1) where Aexp is the optical density of solutions in the wells containing test compounds; Ac is the optical density of solutions in control wells without test compounds. For detailed information on cell viability of various cell lines, see the Supplementary Materials, Figures S21–S26.
(§3) At the second stage of this study, in order to more accurately calculate the CC50 (the half maximal inhibitory concentration), the cytotoxic effect of test compounds was evaluated at concentrations close to CC50 found at the first stage. The study of the cytotoxic activity of each substance towards the cells of each line was carried out in triplicate; the mean value was used to calculate CC50. The CC50 values were determined by non-linear regression analysis using Graph-Pad Prism7.

[2] = MTT cytotoxicity assay, SK-BR-3; format: cell-based, human; conditions: human, read-out: SCI (selective cytotoxicity index)
Description: as §1, §2, §3

[3] = MTT cytotoxicity assay, WI-38 normal cells; format: cell-based; conditions: human, WI-38 lung fibroblasts (normal cells); for CC50 at 72 h: WI-38, 72 h incubation, MTT
Description: as §1, §2, §3

[4] = system: Jurkat human acute T-lymphoblastic leukemia; assay: MTT cytotoxicity assay, Jurkat; format: cell-based; conditions: Homo sapiens, Jurkat; for CC50: 72 h, 72 h incubation, MTT
Description: as §1, §2, §3

[5] = MTT cytotoxicity assay, Jurkat; format: cell-based, human; conditions: human, read-out: SCI (selective cytotoxicity index)
Description: as §1, §2, §3

[6] = system: SNU-1 human gastric carcinoma; assay: MTT cytotoxicity assay, SNU-1; format: cell-based; conditions: Homo sapiens; for CC50: SNU1, 72 h, SNU-1, 72 h incubation, MTT
Description: as §1, §2, §3

[7] = MTT cytotoxicity assay, SNU-1; format: cell-based, human; conditions: human, read-out: SCI (selective cytotoxicity index)
Description: as §1, §2, §3

[8] = system: A549 human non-small-cell lung carcinoma; assay: MTT cytotoxicity assay, A549; format: cell-based; conditions: Homo sapiens; for CC50: A549, 72 h, A549, 72 h incubation, MTT
Description: as §1, §2, §3

[9] = MTT cytotoxicity assay, A549; format: cell-based, human; conditions: human, read-out: SCI (selective cytotoxicity index)
Description: as §1, §2, §3

[10] = system: A549, SK-BR-3, SNU-1, Jurkat, WI-38 cell lines; assay: MTT cytotoxicity assay, cell line panel (result in words); format: cell-based, human; conditions: 72 h
Description: as §1
The cytotoxicity of compounds 2a–c, 6, 7, and 9 was also studied using the MTT assay against a number of tumor cell lines: A549, SK-BR-3, SNU-1, Jurkat, as well as normal fibroblasts WI-38 (Table 3).
as §2, §3

[11] = system: herpes simplex virus type 1 (HSV-1), including acyclovir-resistant HSV-1 strain; set-up: method as in doi:10.1002/ejoc.201900727, doi:10.1515/pac-2019-1214, doi:10.1007/s10593-021-02929-z; conditions: HSV-1 including acyclovir-resistant strain; cited from earlier work
[12] = system: COLO201 human colorectal adenocarcinoma; assay: MTT cytotoxicity assay, COLO201; format: cell-based; conditions: Homo sapiens, COLO 201; for CC50: COLO201, 72 h incubation, MTT, n = 3
Description: as §1, §2, §3

[13] = MTT cytotoxicity assay, COLO201; format: cell-based, human; conditions: human; CC50 of WI-38 divided by CC50 of COLO201; read-out: SCI (selective cytotoxicity index)
Description: as §1, §2, §3

[14] = system: HepG2 human hepatocellular carcinoma; assay: MTT cytotoxicity assay, HepG2; format: cell-based; conditions: Homo sapiens; for CC50: HepG2, 72 h incubation, MTT, n = 3
Description: as §1, §2, §3

[15] = MTT cytotoxicity assay, HepG2; format: cell-based, human; conditions: human; CC50 of WI-38 divided by CC50 of HepG2; read-out: SCI (selective cytotoxicity index)
Description: as §1, §2, §3

[16] = system: CT-26 murine colon carcinoma; assay: MTT cytotoxicity assay, CT-26; format: cell-based; conditions: Mus musculus, CT26; for CC50: CT-26, 72 h incubation, MTT, n = 3
Description: as §1, §2, §3

[17] = MTT cytotoxicity assay, CT-26; format: cell-based, murine; conditions: mouse (CT-26) and human (WI-38); CC50 of WI-38 divided by CC50 of CT-26; read-out: SCI (selective cytotoxicity index)
Description: as §1, §2, §3

[18] = system: MDA-MB-231 human breast adenocarcinoma; assay: MTT cytotoxicity assay, MDA-MB-231; format: cell-based; conditions: Homo sapiens; for CC50: MDA-MB-231, 72 h incubation, MTT, n = 3
Description: as §1, §2, §3

[19] = MTT cytotoxicity assay, MDA-MB-231; format: cell-based, human; conditions: human; CC50 of WI-38 divided by CC50 of MDA-MB-231; read-out: SCI (selective cytotoxicity index)
Description: as §1, §2, §3

[20] = system: 4T1 murine mammary carcinoma; assay: MTT cytotoxicity assay, 4T1; format: cell-based; conditions: Mus musculus; for CC50: 4T1, 72 h incubation, MTT, n = 3
Description: as §1, §2, §3

[21] = MTT cytotoxicity assay, 4T1; format: cell-based, murine; conditions: mouse (4T1) and human (WI-38); CC50 of WI-38 divided by CC50 of 4T1; read-out: SCI (selective cytotoxicity index)
Description: as §1, §2, §3

[22] = Solubility in aqueous media; format: physicochemical; conditions: result in words
[23] = CC50 of WI-38 divided by CC50 of SK-BR-3 (Table 3)
[24] = CC50 of WI-38 divided by CC50 of Jurkat (Table 3)
[25] = CC50 of WI-38 divided by CC50 of SNU-1 (Table 3)
[26] = CC50 of WI-38 divided by CC50 of A549 (Table 3)
[27] = CC50 of WI-38 divided by CC50 of SK-BR-3 (Table 1)
[28] = CC50 of WI-38 divided by CC50 of Jurkat (Table 1)
[29] = CC50 of WI-38 divided by CC50 of SNU-1 (Table 1)
[30] = CC50 of WI-38 divided by CC50 of A549 (Table 1)

| SMILES | CC50 ([1]; n = 3 (Table 3)) | selectivity ratio at 72 h [2, 23] | CC50 at 72 h ([3]; n = 3 (Table 3)) | CC50 ([4]; n = 3 (Table 3)) | selectivity ratio at 72 h [5, 24] | CC50 ([6]; n = 3 (Table 3)) | selectivity ratio at 72 h [7, 25] | CC50 ([8]; n = 3 (Table 3)) | selectivity ratio at 72 h [9, 26] | cytotoxic activity (in words) [10] | CC50 ([1]; n = 3 (Table 1)) | selectivity ratio at 72 h [2, 27] | CC50 at 72 h ([3]; n = 3) | CC50 [12] | selectivity ratio at 72 h [13] | CC50 ([4]; n = 3 (Table 1)) | selectivity ratio at 72 h [5, 28] | CC50 [14] | selectivity ratio at 72 h [15] | CC50 ([6]; n = 3 (Table 1)) | also measured |
| --- | --- | --- | --- | --- | --- | --- | --- | --- | --- | --- | --- | --- | --- | --- | --- | --- | --- | --- | --- | --- | --- |
| CC1COc2c(ccc(F)c2F)N1C(=O)CCCCCNc1ncnc2[nH]cnc12 (stereo not shown) [Compound 1b] | > 100 µM | ≤ 0.98 | 98 µM | 67 µM | 1.5 | 20 µM | 4.9 | 53 µM | 1.8 | showed cytotoxic activity | – | – | – | – | – | – | – | – | – | – | antiviral activity in vitro against HSV-1 [11]: high antiviral activity |
| CC1COc2c(ccc(F)c2F)N1C(=O)CCCCCCCCCCCNc1ncnc2[nH]cnc12 (stereo not shown) [Compound 1e] | – | – | – | – | – | – | – | – | – | – | 85 µM | 0.83 | 71 µM | 3.5 µM | 20 | 4 µM | 18 | 5.2 µM | 14 | 6 µM | viability at 100 µM ([1]; SK-BR-3, 1 × 10^–4 M, mean ± SD (n = 3), read-out: Cell viability): 9 ± 2%; viability at 72 h ([3]; WI-38, 1 × 10^–4 M, mean ± SD (n = 3), read-out: Cell viability): 22 ± 7%; viability at 100 µM ([12]; COLO201, 1 × 10^–4 M, mean ± SD (n = 3), read-out: Cell viability): 2 ± 1%; viability at 100 µM ([4]; 1 × 10^–4 M, mean ± SD (n = 3), read-out: Cell viability): 10 ± 4%; viability at 100 µM ([14]; HepG2, 1 × 10^–4 M, mean ± SD (n = 3), read-out: Cell viability): 2 ± 1%; viability at 100 µM ([6]; SNU1, SNU-1, 1 × 10^–4 M, mean ± SD (n = 3), read-out: Cell viability): 5 ± 1%; selectivity ratio at 72 h [7, 29]: 12; CC50 ([8]; n = 3 (Table 1)): 75 µM; viability at 100 µM ([8]; A549, 1 × 10^–4 M, mean ± SD (n = 3)): 6%; selectivity ratio at 72 h [9, 30]: 0.95; viability at 100 µM ([16]; CT-26, 1 × 10^–4 M, mean ± SD (n = 3), read-out: Cell viability): 3 ± 2%; CC50 [16]: 3.4 µM; selectivity ratio at 72 h [17]: 21; viability at 100 µM ([18]; MDA-MB-231, 1 × 10^–4 M, mean ± SD (n = 3), read-out: Cell viability): 7 ± 5%; CC50 [18]: 12 µM; selectivity ratio at 72 h [19]: 5.9; viability at 100 µM ([20]; 4T1, 1 × 10^–4 M, mean ± SD (n = 3), read-out: Cell viability): 2 ± 2%; CC50 [20]: 0.49 µM; selectivity ratio at 72 h [21]: 145 |
| CC1COc2c(ccc(F)c2F)N1C(=O)CCCCCCCCCCCCCCNc1ncnc2[nH]cnc12 (stereo not shown) [Compound 1f] | – | – | – | – | – | – | – | – | – | – | 99 µM | 0.35 | 35 µM | 1.3 µM | 27 | 32 µM | 1.1 | 9.7 µM | 3.6 | 6 µM | selectivity ratio at 72 h [7, 29]: 5.8; CC50 ([8]; n = 3 (Table 1)): 60 µM; selectivity ratio at 72 h [9, 30]: 0.58; CC50 [16]: 3 µM; selectivity ratio at 72 h [17]: 12; CC50 [18]: 28 µM; selectivity ratio at 72 h [19]: 1.4; CC50 [20]: 2.3 µM; selectivity ratio at 72 h [21]: 15 |
| CC1COc2c(ccc(F)c2F)N1C(=O)CCCCCCCCCCNc1ncnc2c1ncn2COCCO (stereo not shown) [Compound 7, 4-{11-[9-(2-Hydroxyethoxy)methylpurin-6-yl]aminoundecanoyl}-7,8-difluoro-3,4-dihydro-3-methyl-2H-[1,4]benzoxazine] | 42 µM | 0.33 | 14 µM | 7.3 µM | 1.9 | 3.7 µM | 3.8 | 9.4 µM | 1.5 | approximately the same cytotoxicity as the most active compound 1d | – | – | – | – | – | – | – | – | – | – | solubility in aqueous media [22]: not possible to achieve a significant increase in the solubility |
